Data reported in patent US8952024B2, “Herbicidal pyrimidone derivatives” (E I du Pont de Nemours and Company, priority 2009, dated 2015).

Legend:
Assay in all cases: Test B pre-/postemergence plant response
Assay type in all cases: in vivo
[1] = tested on: pigweed (Amaranthus retroflexus); details: Postemergence
How it was run: (§1)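 Compound in solvent + surfactant applied pre-em (loam/sand) or post-em (plants 2–18 cm, peat medium); greenhouse hold 13–15 days; visual 0–100 control score.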

[2] = tested on: yellow nutsedge (Cyperus esculentus); details: Postemergence
How it was run: as §1

[3] = tested on: ragweed (common ragweed, Ambrosia elatior); details: Postemergence
How it was run: as §1

[4] = tested on: velvetleaf (Abutilon theophrasti); details: Postemergence
How it was run: as §1

[5] = tested on: goosegrass (Eleusine indica); details: Postemergence
How it was run: as §1

[6] = tested on: Italian ryegrass (Lolium multiflorum); details: Postemergence
How it was run: as §1

[7] = tested on: Surinam grass (Brachiaria decumbens); details: Postemergence
How it was run: as §1

[8] = tested on: green foxtail (Setaria viridis); details: Postemergence
How it was run: as §1

[9] = tested on: woolly cupgrass (Eriochloa villosa); details: Postemergence
How it was run: as §1

[10] = tested on: large crabgrass (Digitaria sanguinalis); details: Postemergence
How it was run: as §1

[11] = tested on: wheat (Triticum aestivum); details: Postemergence
How it was run: as §1

[12] = tested on: lambsquarters (Chenopodium album); details: Postemergence
How it was run: as §1

[13] = tested on: downy bromegrass (Bromus tectorum); details: for Bromegrass, Downy plant response rating (0 to 100 scale): 62 g ai/ha, postemergence, 0 is no effect, 100 is complete control; for Plant response rating, Bromegrass, Downy: Postemergence
How it was run: as §1

[14] = 31 g ai/ha, 0 to 100 scale (0 no effect, 100 complete control)
[15] = 125 g ai/ha, scale 0 to 100 (0 no effect, 100 complete control)
[16] = 250 g ai/ha, scale 0 to 100 (0 no effect, 100 complete control), 13 to 15 days

Cc1ccc(F)cc1-n1c(-c2cccc(Cl)c2)ncc(C(=O)C2=C(O)CCCC2=O)c1=O [Compound 157]
Plant response rating, Pigweed [1, 14]: 65 | Plant response rating, Pigweed [1, 15]: 90 | Plant response rating, Pigweed [1, 16]: 98 | Plant response rating, Nutsedge, Yellow [2, 14]: 30 | Plant response rating, Nutsedge, Yellow [2, 15]: 40 | Plant response rating, Nutsedge, Yellow [2, 16]: 45 | Plant response rating, Ragweed [3, 14]: 90 | Plant response rating, Ragweed [3, 15]: 100 | Plant response rating, Ragweed [3, 16]: 100 | Plant response rating, Velvetleaf [4, 14]: 100 | Plant response rating, Velvetleaf [4, 15]: 100 | Plant response rating, Velvetleaf [4, 16]: 100 | Plant response rating, Goosegrass [5, 14]: 85 | Plant response rating, Goosegrass [5, 15]: 98 | Plant response rating, Goosegrass [5, 16]: 100 | Plant response rating, Ryegrass, Italian [6, 14]: 10 | Plant response rating, Ryegrass, Italian [6, 15]: 30 | Plant response rating, Ryegrass, Italian [6, 16]: 35 | Plant response rating, Surinam Grass [7, 14]: 75 | Plant response rating, Surinam Grass [7, 15]: 98 | Plant response rating, Surinam Grass [7, 16]: 100 | Plant response rating, Foxtail, Green [8, 14]: 70 | Plant response rating, Foxtail, Green [8, 15]: 85 | Plant response rating, Foxtail, Green [8, 16]: 95 | Plant response rating, Cupgrass, Woolly [9, 14]: 85 | Plant response rating, Cupgrass, Woolly [9, 15]: 98 | Plant response rating, Cupgrass, Woolly [9, 16]: 98 | Plant response rating, Crabgrass, Large [10, 14]: 80 | Plant response rating, Crabgrass, Large [10, 15]: 98 | Plant response rating, Crabgrass, Large [10, 16]: 100 | Plant response rating, Wheat [11, 14]: 0 | Plant response rating, Wheat [11, 15]: 20 | Plant response rating, Wheat [11, 16]: 30 | Plant response rating, Lambsquarters [12, 14]: 98 | Plant response rating, Lambsquarters [12, 15]: 100 | Plant response rating, Lambsquarters [12, 16]: 100 | Bromegrass, Downy plant response rating (0 to 100 scale) ([13]; 13 to 15 days): 40 | Plant response rating, Bromegrass, Downy [13, 14]: 40 | Plant response rating, Bromegrass, Downy [13, 15]: 60 | Plant response rating, Bromegrass, Downy [13, 16]: 65

Cc1ccccc1-n1c(-c2cc(F)cc(F)c2)ncc(C(=O)C2=C(O)CCCC2=O)c1=O [Compound 159]
Plant response rating, Pigweed ([1]; 8 g ai/ha, 0 to 100 scale): 55 | Plant response rating, Pigweed ([1]; 16 g ai/ha, 0 to 100 scale): 75 | Plant response rating, Pigweed [1, 14]: 95 | Plant response rating, Nutsedge, Yellow ([2]; 8 g ai/ha, 0 to 100 scale): 10 | Plant response rating, Nutsedge, Yellow ([2]; 16 g ai/ha, 0 to 100 scale): 20 | Plant response rating, Nutsedge, Yellow [2, 14]: 40 | Plant response rating, Ragweed ([3]; 8 g ai/ha, 0 to 100 scale): 65 | Plant response rating, Ragweed ([3]; 16 g ai/ha, 0 to 100 scale): 80 | Plant response rating, Ragweed [3, 14]: 90 | Plant response rating, Velvetleaf ([4]; 8 g ai/ha, 0 to 100 scale): 98 | Plant response rating, Velvetleaf ([4]; 16 g ai/ha, 0 to 100 scale): 100 | Plant response rating, Velvetleaf [4, 14]: 100 | Plant response rating, Goosegrass ([5]; 8 g ai/ha, 0 to 100 scale): 70 | Plant response rating, Goosegrass ([5]; 16 g ai/ha, 0 to 100 scale): 80 | Plant response rating, Goosegrass [5, 14]: 85 | Plant response rating, Ryegrass, Italian ([6]; 8 g ai/ha, 0 to 100 scale): 0 | Plant response rating, Ryegrass, Italian ([6]; 16 g ai/ha, 0 to 100 scale): 0 | Plant response rating, Ryegrass, Italian [6, 14]: 30 | Plant response rating, Surinam Grass ([7]; 8 g ai/ha, 0 to 100 scale): 65 | Plant response rating, Surinam Grass ([7]; 16 g ai/ha, 0 to 100 scale): 65 | Plant response rating, Surinam Grass [7, 14]: 75 | Plant response rating, Foxtail, Green ([8]; 8 g ai/ha, 0 to 100 scale): 50 | Plant response rating, Foxtail, Green ([8]; 16 g ai/ha, 0 to 100 scale): 80 | Plant response rating, Foxtail, Green [8, 14]: 85 | Plant response rating, Cupgrass, Woolly ([9]; 8 g ai/ha, 0 to 100 scale): 60 | Plant response rating, Cupgrass, Woolly ([9]; 16 g ai/ha, 0 to 100 scale): 65 | Plant response rating, Cupgrass, Woolly [9, 14]: 70 | Plant response rating, Crabgrass, Large ([10]; 8 g ai/ha, 0 to 100 scale): 65 | Plant response rating, Crabgrass, Large ([10]; 16 g ai/ha, 0 to 100 scale): 75 | Plant response rating, Crabgrass, Large [10, 14]: 80 | Plant response rating, Wheat ([11]; 8 g ai/ha, 0 to 100 scale): 10 | Plant response rating, Wheat ([11]; 16 g ai/ha, 0 to 100 scale): 35 | Plant response rating, Wheat [11, 14]: 40 | Plant response rating, Lambsquarters ([12]; 8 g ai/ha, 0 to 100 scale): 90 | Plant response rating, Lambsquarters ([12]; 16 g ai/ha, 0 to 100 scale): 95 | Plant response rating, Lambsquarters [12, 14]: 100 | Plant response rating, Bromegrass, Downy ([13]; 8 g ai/ha, 0 to 100 scale): 15 | Plant response rating, Bromegrass, Downy ([13]; 16 g ai/ha, 0 to 100 scale): 15 | Bromegrass, Downy plant response rating (0 to 100 scale) ([13]; 13 to 15 days): 50 | Plant response rating, Bromegrass, Downy [13, 14]: 50
